Results taken from patent US10400008B2, “Modulators of the SRC-kinase activity for preventing or treating metastatic cancer” (Cancer Research Technology Limited, priority 2013, dated 2019).

Columns and labels:
MMP-9 = MMP-9 release from HT1080 cells (fluorescent AK411 kit); assay type: cell-based, human; conditions: 6 h, Casodex 10 μM
Description: (§1) FIG. 4: The S1 peptide inhibits EGF-stimulated migration and MMP-9 secretion in HT1080 cells. Quiescent HT1080 cells were used. In A, cells were left untreated or treated for 6 h with the indicated compounds. MMP-9 release was assayed as described in Methods. In B, cells were allowed to migrate for 6 h in Trans-well filters in the absence or presence of the indicated compounds. Migrated cells were stained and counted as reported in Methods. In A and B, data were expressed as relative increase. Mean and SEM is shown. n represents the number of experiments. In C, cells were wounded and then left unstimulated or stimulated for 6 h with the indicated compounds. Contrast-phase images are representative of 3 different experiments, each performed in duplicate.
(§2) BrdU incorporation, migration and wound healing analysis were done as described (3, 11). MMP-9 activity was assayed (12, 13), using the fluorescent AK411 kit (BIOMOL Res. Lab.).

HT1080 cell xenografts = test: HT1080 xenografts in nude male mice, tumor mass; assay type: in vivo; conditions: 200 μl of 1 μM Casodex i.p. at alternate days, 4 weeks, vs vehicle
Description: FIG. 1: Casodex reduces the growth of human fibrosarcoma HT1080 xenografts. HT1080 xenografts were established in nude male mice as described in Methods. Tumors were treated with vehicle alone (ethanol), or the pure androgen antagonist, Casodex (Cx; at 1 μM; Sigma-Aldrich). Tumor mass was measured at the indicated times. Mean and SEM are shown. n represents the number of experiments.
(§3) HT1080 cells in 50% (v/v) Matrigel solution in phosphate-buffered saline (PBS; pH 7.4) were subcutaneously injected in the dorsal posterior region at 2.5×10^6 cells/male athymic mice (CD mice, Charles-River Italia) without hormone priming. Animals were randomly selected for the treatment with Casodex dissolved in 0.1% ethanol or vehicle alone for additional 4 weeks. Tumour volumes of HT1080 cell xeno-grafts were measured by a calliper and expressed as tumour mass (mm^3). For the treatment of each animal, 200 μl of 1 μM Casodex in 0.1% ethanol or the same amount of vehicle alone were intra-peritoneally administered at alternate days to the mice. No difference in body weight was detected between control mice or Casodex-treated mice.

HT1080 cells [1] = test: Migration in Trans-well filters and wound healing of HT1080 cells; assay type: cell-based, human; conditions: 6 h, Casodex 10 μM
Description: as §1, §2

Src = biological target: T1, Src (Homo sapiens, UniProt P12931); test: Src kinase assay in immune-complexes with enolase as substrate, EGF-stimulated HT1080 cells; assay type: cell-based; conditions: EGF 100 ng/ml, 10 μM Casodex, compared with 1 nM S1 peptide
T1 construct: lysates were immune-precipitated with the anti-Src MAb and Src activity in immune-complexes was assayed using enolase as a substrate; endogenous in cells; host or cells: HT1080 human fibrosarcoma cells
T1 sequence (P12931 whole entry): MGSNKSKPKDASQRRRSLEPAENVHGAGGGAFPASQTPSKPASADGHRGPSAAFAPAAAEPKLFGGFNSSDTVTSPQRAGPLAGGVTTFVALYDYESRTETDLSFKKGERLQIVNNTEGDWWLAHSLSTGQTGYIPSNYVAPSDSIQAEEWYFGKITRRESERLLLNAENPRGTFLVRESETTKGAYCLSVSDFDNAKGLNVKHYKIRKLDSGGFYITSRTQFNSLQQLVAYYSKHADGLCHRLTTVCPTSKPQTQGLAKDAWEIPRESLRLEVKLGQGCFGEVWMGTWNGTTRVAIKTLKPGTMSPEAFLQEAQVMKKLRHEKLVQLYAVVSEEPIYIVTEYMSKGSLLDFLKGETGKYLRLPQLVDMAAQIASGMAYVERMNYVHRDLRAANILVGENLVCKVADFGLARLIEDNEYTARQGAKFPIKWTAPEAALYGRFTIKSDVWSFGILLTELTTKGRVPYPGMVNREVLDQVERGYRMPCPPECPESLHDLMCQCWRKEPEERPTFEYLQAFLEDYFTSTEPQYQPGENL
Description: FIG. 3: Inhibition by S1 peptide of AR/Src complex, Src activation and DNA synthesis triggered by EGF in HT1080 cells. Quiescent HT1080 cells were used. The cells were left un-stimulated or stimulated for 10 min with EGF (at 100 ng/ml; Roche) in the absence or presence of S1 or Ss peptide (both at 1 nM). Casodex (at 10 μM) was used for comparison with the S1 peptide. The same concentrations of peptides and Casodex were used throughout the experiments. Upper section in A, the Western blot of HT1080 cell lysates with anti-EGFR antibody is shown. […] Lower section in A, lysates were immune-precipitated with anti EGFR Ab and proteins in immune-complexes were detected using antibodies against the indicated proteins. In B, lysates were immune-precipitated with the anti-Src MAb and Src activity in immune-complexes was assayed using enolase as a substrate. In C, cells on coverslips were left untreated or treated for 18 h with the indicated compounds. After in vivo pulse with BrdU (100 μM; Sigma), BrdU incorporation was analyzed by IF and expressed as % of total nuclei. Mean and SEM are shown. n represents the number of experiments.
Src tyrosine kinase was immune-precipitated, detected and assayed using enolase as a substrate (15). Src, EGF-R and tubulin were detected from cell lysates using appropriate antibodies (7). AR was immune-precipitated and detected as reported (3). […]

HT1080 cells [2] = test: BrdU incorporation (DNA synthesis) in HT1080 cells; assay type: cell-based, human; conditions: EGF, Casodex 10 μM
Description: Androgen challenging of these cells neither induces AR nuclear translocation, nor enhances DNA synthesis while robustly increases cell motility. In A, quiescent HT1080 cells were transfected with 3416 or 3424 ARE-luc constructs with or without hAR expressing plasmid. Details of these procedures have been described in Methods. Cells were left un-stimulated or stimulated for 18 h with 10 nM R1881. The luciferase activity was assayed, normalized using beta-gal as an internal control, and expressed as fold induction. Means and SEM are shown; n represents the number of experiments. […] In B, quiescent HT1080 cells on coverslips were left untreated or treated for 60 min with 10 nM R1881. Cells were analysed by IF for AR (left images) or Hoechst (right images). Images are representative of three independent experiments. […] In C, BrdU incorporation in cells on coverslips was analysed and expressed as in FIG. 2. In D, the number of migrated cells was evaluated and expressed as relative increase. […]
FIG. 3: Inhibition by S1 peptide of AR/Src complex, Src activation and DNA synthesis triggered by EGF in HT1080 cells. […] Lower section in A, lysates were immune-precipitated with anti EGFR Ab and proteins in immune-complexes were detected using antibodies against the indicated proteins. […] After in vivo pulse with BrdU (100 μM; Sigma), BrdU incorporation was analyzed by IF and expressed as % of total nuclei. […]

[3] = Body weight of HT1080 xenograft mice; assay type: in vivo; conditions: Casodex-treated vs control mice
Description: as §3

[4] = test system: non-small cell lung tumor line xenografts; conditions: mice, reference 20; cited from earlier work
EGF receptor (EGFR) = biological target: T2, EGF receptor (EGFR) (human, UniProt P00533 25-1210); test: immune-precipitation with anti-EGFR antibody from EGF-stimulated HT1080 lysates, immunoblot
T2 construct: Endogenous protein of HT1080 cells
Description: Quiescent HT1080 cells were used. […] The same concentrations of peptides and Casodex were used throughout the experiments. […] In C, cells on coverslips were left untreated or treated for 18 h with the indicated compounds. After in vivo pulse with BrdU (100 μM; Sigma), BrdU incorporation was analyzed by IF and expressed as % of total nuclei. Mean and SEM are shown. n represents the number of experiments.
The ECL system (GE Healthcare) was used to reveal immune-reactive proteins.

CC(O)(CS(=O)(=O)c1ccc(F)cc1)C(=O)Nc1ccc(C#N)c(C(F)(F)F)c1 (centres unmarked) [Casodex, reference compound]
EGF-stimulated MMP-9 secretion (MMP-9): inhibits | growth (tumor mass) of HT1080 xenografts (HT1080 cell xenografts): reduced | EGF-increased motility (HT1080 cells [1]): inhibited at a similar extent | EGF stimulation of Src activity (Src): comparable | EGF mitogenic effect (DNA synthesis) (HT1080 cells [2]): abolishes | body weight [3]: No difference

C[C@]12CC[C@@H]3c4ccc(O)cc4C[C@@H](CCCCCCCCC[S+]([O-])CCCC(F)(F)C(F)(F)F)[C@H]3[C@@H]1CC[C@@H]2O (some centres unmarked) [ICI 182,780]
estrogen-stimulated growth of non-small cell lung tumor line xenografts [4]: blocks

B1: androgen receptor (AR) (receptor, human, UniProt P10275 1-920, looked up)
chain: MEVQLGLGRVYPRPPSKTYRGAFQNLFQSVREVIQNPGPRHPEAASAAPPGASLLLLQQQQQQQQQQQQQQQQQQQQQQQETSPRQQQQQQGEDGSPQAHRRGPTGYLVLDEEQQPSQPQSALECHPERGCVPEPGAAVAASKGLPQQLPAPPDEDDSAAPSTLSLLGPTFPGLSSCSADLKDILSEASTMQLLQQQQQEAVSEGSSSGRAREASGAPTSSKDNYLGGTSTISDNAKELCKAVSVSMGLGVEALEHLSPGEQLRGDCMYAPLLGVPPAVRPTPCAPLAECKGSLLDDSAGKSTEDTAEYSPFKGGYTKGLEGESLGCSGSAAAGSSGTLELPSTLSLYKSGALDEAAAYQSRDYYNFPLALAGPPPPPPPPHPHARIKLENPLDYGSAWAAAAAQCRYGDLASLHGAGAAGPGSGSPSAAASSSWHTLFTAEEGQLYGPCGGGGGGGGGGGGGGGGGGGGGGGEAGAVAPYGYTRPPQGLAGQESDFTAPDVWYPGGMVSRVPYPSPTCVKSEMGPWMDSYSGPYGDMRLETARDHVLPIDYYFPPQKTCLICGDEASGCHYGALTCGSCKVFFKRAAEGKQKYLCASRNDCTIDKFRRKNCPSCRLRKCYEAGMTLGARKLKKLGNLKLQEEGEASSTTSPTEETTQKLTVSHIEGYECQPIFLNVLEAIEPGVVCAGHDNNQPDSFAALLSSLNELGERQLVHVVKWAKALPGFRNLHVDDQMAVIQYSWMGLMVFAMGWRSFTNVNSRMLYFAPDLVFNEYRMHKSRMYSQCVRMRHLSQEFGWLQITPQEFLCMKALLLFSIIPVDGLKNQKFFDELRMNYIKELDRIIACKRKNPTSCSRRFYQLTKLLDSVQPIARELHQFTFDLLIKSHMVSVDFPEMMAEIISVQVPKILSGKVKPIYFHTQ
notes: Endogenous protein of HT1080 cells (co-immunoprecipitation from lysates)
binding result (EGF receptor (EGFR)): binds
